Results as given in patent US20220062240A1, “METHODS OF TREATING CANCER USING A CLK INHIBITOR” (BioSplice Therapeutics, Inc., priority 2018, published 2022).
Like-named read-outs stand apart in the source and are kept apart here.

Key:
all 50 cell lines = assay: CellTiter-Glo Viability Assay, average across all cell lines; format: cell-based; conditions: Homo sapiens; across all 50 cell lines; read-out: average EC50 for inhibition of cancer cell proliferation
Summary of the method: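 Human cancer cell lines from breast, colorectal, haematopoietic/lymphoid, liver, lung, ovarian, pancreatic and prostate tumours were seeded at 300-3,000 cells/well and exposed to compound in duplicate for four days at 37° C, 5% CO2. Viable cells were measured by ATP luminescence; EC50 values came from dose-response curves.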

[1] = system: prostate cancer (5 cell lines); assay: CellTiter-Glo Viability Assay, prostate cancer; format: cell-based; conditions: Homo sapiens
BT-549 = assay: CellTiter-Glo Viability Assay, breast cancer; format: cell-based; conditions: Homo sapiens, 96 h; BT-549, breast cancer, four days; read-out: EC50
MCF7 = assay: CellTiter-Glo Viability Assay, breast cancer; format: cell-based; conditions: Homo sapiens, 96 h; MCF7, breast cancer, four days; read-out: EC50
ZR-75-1 = assay: CellTiter-Glo Viability Assay, breast cancer; format: cell-based; conditions: Homo sapiens, 96 h; ZR-75-1, breast cancer, four days; read-out: EC50
CAMA1 = assay: CellTiter-Glo Viability Assay, breast cancer; format: cell-based; conditions: Homo sapiens, CAMA-1, 96 h; CAMA1, breast cancer, four days; read-out: EC50
MDA-MB-231-Luc = assay: CellTiter-Glo Viability Assay, breast cancer; format: cell-based; conditions: Homo sapiens, 96 h; MDA-MB-231-Luc, breast cancer, four days; read-out: EC50
HCC1599 = assay: CellTiter-Glo Viability Assay, breast cancer; format: cell-based; conditions: Homo sapiens, 96 h; HCC1599, breast cancer, four days; read-out: EC50
T47D = assay: CellTiter-Glo Viability Assay, breast cancer; format: cell-based; conditions: Homo sapiens, 96 h, breast cancer, four days, read-out: EC50
DU4475 = assay: CellTiter-Glo Viability Assay, breast cancer; format: cell-based; conditions: Homo sapiens, DU-4475, 96 h; DU4475, breast cancer, four days; read-out: EC50
[2] = system: lung cancer (4 cell lines); assay: CellTiter-Glo Viability Assay, lung cancer; format: cell-based; conditions: Homo sapiens, inhibition of cancer cell proliferation
[3] = system: liver cancer (3 cell lines); assay: CellTiter-Glo Viability Assay, liver cancer; format: cell-based; conditions: Homo sapiens, inhibition of cancer cell proliferation
CLK3 = CLK3 (Homo sapiens, UniProt P49761); assay: CLK3 kinase activity assay (Z-lyte, Ser/Thr 18 peptide)
[4] = system: colorectal cancer (6 cell lines); assay: CellTiter-Glo Viability Assay, colorectal cancer; format: cell-based; conditions: Homo sapiens, inhibition of cancer cell proliferation
[5] = system: haematopoietic & lymphoid tumors (13 cell lines); assay: CellTiter-Glo Viability Assay, haematopoietic & lymphoid tumors; format: cell-based; conditions: Homo sapiens, inhibition of cancer cell proliferation
[6] = system: ovarian cancer (4 cell lines); assay: CellTiter-Glo Viability Assay, ovarian cancer; format: cell-based; conditions: Homo sapiens, inhibition of cancer cell proliferation
CLK2 = target: T1, CLK2 (Homo sapiens, UniProt P49760); assay: CLK2 kinase activity assay (Z-lyte, Ser/Thr 6 peptide); format: biochemical; conditions: recombinant CLK2 kinase, ATP 60 μM; read-out: EC50
T1 construct: purchased Thermo Fisher (Life Technologies), Z'-LYTE Kinase Assay Kits
Description: All reactions were performed in duplicate.

[7] = system: pancreatic cancer (8 cell lines); assay: CellTiter-Glo Viability Assay, pancreatic cancer; format: cell-based; conditions: Homo sapiens, inhibition of cancer cell proliferation
[8] = DU-145, read-out: Prostate cancer EC50 Du-145
[9] = PC-3, PC3 cell line, inhibition of cancer cell proliferation, read-out: Prostate cancer EC50 PC3
[10] = 22Rv1 cell line, inhibition of cancer cell proliferation, read-out: Prostate cancer EC50 22Rv1
[11] = LNCap clone FGC cell line, inhibition of cancer cell proliferation, read-out: Prostate cancer EC50 LNCap clone FGC
[12] = VCaP (Sigma) cell line, inhibition of cancer cell proliferation, read-out: Prostate cancer EC50 VCaP (Sigma)
[13] = A-427, A427 cell line, read-out: Lung cancer, EC50 (μM) A427
[14] = HCC78, HCC-78 cell line, read-out: Lung cancer, EC50 (μM) HCC-78
[15] = NCI-H460 cell line, read-out: Lung cancer, EC50 (μM) NCI-H460
[16] = NCI-H522 cell line, read-out: Lung cancer, EC50 (μM) NCI-H522
[17] = SNU-398, SNU398 cell line, read-out: Liver cancer, EC50 SNU398
[18] = HEPG2 cell line, read-out: Liver cancer, EC50 HEPG2
[19] = PLC/PRF/5 cell line, read-out: Liver cancer, EC50 PLC/PRF/5
[20] = HCT-116, HCT116 cell line, read-out: Colorectal cancer, EC50 (μM) HCT116
[21] = HT-29, HT29 cell line, read-out: Colorectal cancer, EC50 (μM) HT29
[22] = SW-620, SW620 cell line, read-out: Colorectal cancer, EC50 (μM) SW620
[23] = DLD-1 cell line, read-out: Colorectal cancer, EC50 (μM) DLD-1
[24] = SW48 cell line, read-out: Colorectal cancer, EC50 (μM) SW48
[25] = SW480 cell line, read-out: Colorectal cancer, EC50 (μM) SW480
[26] = DND41, DND-41 cell line, read-out: Haematopoietic & Lymphoid tumors, EC50 (μM) DND-41
[27] = MV4-11, MV-4-11 cell line, read-out: Haematopoietic & Lymphoid tumors, EC50 (μM) MV-4-11
[28] = Rec1, REC-1 cell line, read-out: Haematopoietic & Lymphoid tumors, EC50 (μM) REC-1
[29] = SU-DHL-4, SUDHL4 cell line, read-out: Haematopoietic & Lymphoid tumors, EC50 (μM) SUDHL4
[30] = HL-60 cell line, read-out: Haematopoietic & Lymphoid tumors, EC50 (μM) HL-60
[31] = JM1 cell line, read-out: Haematopoietic & Lymphoid tumors, EC50 (μM) JM1
[32] = JURKAT, Clone E6-1 cell line, read-out: Haematopoietic & Lymphoid tumors, EC50 (μM) JURKAT, Clone E6-1
[33] = JeKo-1 cell line, read-out: Haematopoietic & Lymphoid tumors, EC50 (μM) JeKo-1
[34] = KASUMI-1 cell line, read-out: Haematopoietic & Lymphoid tumors, EC50 (μM) KASUMI-1
[35] = Loucy cell line, read-out: Haematopoietic & Lymphoid tumors, EC50 (μM) Loucy
[36] = MOLT-4 cell line, read-out: Haematopoietic & Lymphoid tumors, EC50 (μM) MOLT-4
[37] = TF-1 cell line, read-out: Haematopoietic & Lymphoid tumors, EC50 (μM) TF-1
[38] = TOLEDO cell line, read-out: Haematopoietic & Lymphoid tumors, EC50 (μM) TOLEDO
[39] = PA-1, PA1 cell line, read-out: Ovarian cancer, EC50 (μM) PA1
[40] = TOV112D, TOV-112D cell line, read-out: Ovarian cancer, EC50 (μM) TOV-112D
[41] = OV-90 cell line, read-out: Ovarian cancer, EC50 (μM) OV-90
[42] = OVCAR-3 cell line, read-out: Ovarian cancer, EC50 (μM) OVCAR-3
[43] = BXPC-3, BxPC3 cell line, read-out: Pancreatic cancer, EC50 BxPC3
[44] = CAPAN-1, Capan1 cell line, read-out: Pancreatic cancer, EC50 Capan1
[45] = Capan-2, Capan2 cell line, read-out: Pancreatic cancer, EC50 Capan2
[46] = MIA PaCa-2 cell line, read-out: Pancreatic cancer, EC50 MIA PaCa-2
[47] = PANC 05.04 cell line, read-out: Pancreatic cancer, EC50 PANC 05.04
[48] = PANC-1 cell line, read-out: Pancreatic cancer, EC50 PANC-1
[49] = UPAFII cell line, read-out: Pancreatic cancer, EC50 UPAFII

Sequence of CLK3 (P49761 whole entry): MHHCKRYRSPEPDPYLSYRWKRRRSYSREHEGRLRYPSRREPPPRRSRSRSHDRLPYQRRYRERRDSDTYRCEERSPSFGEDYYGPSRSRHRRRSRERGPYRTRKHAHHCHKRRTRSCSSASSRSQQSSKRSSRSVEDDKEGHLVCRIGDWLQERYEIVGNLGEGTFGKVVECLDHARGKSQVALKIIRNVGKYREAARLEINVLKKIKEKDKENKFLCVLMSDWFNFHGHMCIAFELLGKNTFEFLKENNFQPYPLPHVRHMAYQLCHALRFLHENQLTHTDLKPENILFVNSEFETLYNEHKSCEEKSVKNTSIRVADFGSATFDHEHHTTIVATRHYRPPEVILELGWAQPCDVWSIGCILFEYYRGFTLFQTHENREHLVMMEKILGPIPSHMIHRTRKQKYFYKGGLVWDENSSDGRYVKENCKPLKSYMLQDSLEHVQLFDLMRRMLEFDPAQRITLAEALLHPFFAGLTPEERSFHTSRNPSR
T1 sequence (P49760 whole entry): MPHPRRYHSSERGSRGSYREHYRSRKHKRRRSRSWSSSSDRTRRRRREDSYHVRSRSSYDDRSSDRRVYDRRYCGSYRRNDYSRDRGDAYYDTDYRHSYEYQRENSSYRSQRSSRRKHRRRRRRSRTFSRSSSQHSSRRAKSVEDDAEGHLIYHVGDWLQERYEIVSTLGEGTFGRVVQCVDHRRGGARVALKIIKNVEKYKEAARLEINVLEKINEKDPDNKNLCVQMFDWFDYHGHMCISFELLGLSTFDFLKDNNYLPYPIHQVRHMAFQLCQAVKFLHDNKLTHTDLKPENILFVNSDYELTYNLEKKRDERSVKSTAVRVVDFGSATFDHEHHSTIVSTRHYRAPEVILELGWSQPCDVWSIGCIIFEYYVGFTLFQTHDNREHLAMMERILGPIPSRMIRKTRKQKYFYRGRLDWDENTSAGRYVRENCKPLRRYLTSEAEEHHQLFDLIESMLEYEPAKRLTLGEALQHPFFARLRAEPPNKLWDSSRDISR

Compound CC(C)Nc1cncc(-c2ccc3cnc(NC(=O)c4cn(C5CCN(CCF)CC5)nn4)cc3c2)n1 [Compound 85] has an EC50 (all 50 cell lines) of 880 nM, an EC50 [1, 8] of 239 nM and an EC50 [1, 9] of 250 nM. For the same compound, the EC50 [1, 10] was 414 nM, the EC50 [1, 11] was 509 nM and the EC50 [1, 12] was 505 nM. It also gave an EC50 (BT-549) of 210 nM, an EC50 (MCF7) of 683 nM and an EC50 (ZR-75-1) of 506 nM. The EC50 (CAMA1) was 399 nM, the EC50 (MDA-MB-231-Luc) was > 10000 nM and the EC50 (HCC1599) was 94 nM. For the same compound, the EC50 (T47D) was 635 nM, the EC50 (DU4475) was 420 nM and the EC50 [2, 13] was 0.452 µM. The EC50 [2, 14] was 0.64 µM, the EC50 [2, 15] was 0.564 µM and the EC50 [2, 16] was 0.412 µM. For the same compound, the EC50 [3, 17] was 96 nM, the EC50 [3, 18] was > 10000 nM and the EC50 [3, 19] was 350 nM. For the same compound, the EC50 (CLK3) was 12 nM, the EC50 [4, 20] was 0.077 µM and the EC50 [4, 21] was 0.198 µM. It also gave an EC50 [4, 22] of 0.067 µM, an EC50 [4, 23] of 0.173 µM and an EC50 [4, 24] of 0.059 µM. The EC50 [4, 25] was 0.136 µM, the EC50 [5, 26] was 0.207 µM and the EC50 [5, 27] was 0.067 µM. It also gave an EC50 [5, 28] of 0.082 µM, an EC50 [5, 29] of 0.491 µM and an EC50 [5, 30] of 0.252 µM. The EC50 [5, 31] was 0.175 µM, the EC50 [5, 32] was 0.466 µM and the EC50 [5, 33] was 0.109 µM. For the same compound, the EC50 [5, 34] was 0.209 µM, the EC50 [5, 35] was 0.241 µM and the EC50 [5, 36] was 0.13 µM. For the same compound, the EC50 [5, 37] was 0.226 µM, the EC50 [5, 38] was 0.122 µM and the EC50 [6, 39] was > 10 µM. It also gave an EC50 [6, 40] of 0.143 µM, an EC50 [6, 41] of 0.562 µM and an EC50 [6, 42] of 0.171 µM. It also gave an EC50 (CLK2) of 4 nM, an EC50 [7, 43] of 527 nM and an EC50 [7, 44] of 224 nM. The EC50 [7, 45] was 295 nM, the EC50 [7, 46] was 148 nM and the EC50 [7, 47] was 419 nM. It also gave an EC50 [7, 48] of 488 nM and an EC50 [7, 49] of 135 nM.
O=C(Nc1c[nH]nc1-c1nc2c(-c3cccc(F)c3)cncc2[nH]1)c1cccnc1 [Compound 91] showed an EC50 (all 50 cell lines) of 99 nM, an EC50 [1, 8] of 91 nM and an EC50 [1, 9] of 31 nM. It also gave an EC50 [1, 10] of 21 nM, an EC50 [1, 11] of 50 nM and an EC50 [1, 12] of 9 nM. It also gave an EC50 (BT-549) of 24 nM, an EC50 (MCF7) of 336 nM and an EC50 (ZR-75-1) of 113 nM. For the same compound, the EC50 (CAMA1) was 88 nM, the EC50 (MDA-MB-231-Luc) was 118 nM and the EC50 (HCC1599) was 8 nM. For the same compound, the EC50 (T47D) was 402 nM, the EC50 (DU4475) was 46 nM and the EC50 [2, 13] was 0.064 µM. The EC50 [2, 14] was 0.1 µM, the EC50 [2, 15] was 0.476 µM and the EC50 [2, 16] was 0.06 µM. The EC50 [3, 17] was 38 nM, the EC50 [3, 18] was 375 nM and the EC50 [3, 19] was 444 nM. For the same compound, the EC50 (CLK3) was 22.5 nM, the EC50 [4, 20] was 0.05 µM and the EC50 [4, 21] was 0.211 µM. It also gave an EC50 [4, 22] of 0.044 µM, an EC50 [4, 23] of 0.095 µM and an EC50 [4, 24] of 0.082 µM. For the same compound, the EC50 [4, 25] was 0.078 µM, the EC50 [5, 26] was 0.014 µM and the EC50 [5, 27] was 0.007 µM. For the same compound, the EC50 [5, 28] was 0.024 µM, the EC50 [5, 29] was 0.009 µM and the EC50 [5, 30] was 0.034 µM. The EC50 [5, 31] was 0.01 µM, the EC50 [5, 32] was 0.031 µM and the EC50 [5, 33] was 0.008 µM. It also gave an EC50 [5, 34] of 0.01 µM, an EC50 [5, 35] of 0.013 µM and an EC50 [5, 36] of 0.045 µM. The EC50 [5, 37] was 0.008 µM, the EC50 [5, 38] was 0.019 µM and the EC50 [6, 39] was 0.057 µM. For the same compound, the EC50 [6, 40] was 0.102 µM, the EC50 [6, 41] was 0.255 µM and the EC50 [6, 42] was 0.025 µM. It also gave an EC50 (CLK2) of 3.1 nM, an EC50 [7, 43] of 22 nM and an EC50 [7, 44] of 103 nM. For the same compound, the EC50 [7, 45] was 74 nM, the EC50 [7, 46] was 40 nM and the EC50 [7, 47] was 60 nM. For the same compound, the EC50 [7, 48] was 413 nM and the EC50 [7, 49] was 136 nM.
